The source of these data is patent US20070110885A1, “Method for controlling retention of an organic compound or of a plurality of organic compounds inside a liquid or solid phase and applications of said method, in particular in the agri-food domain” (priority 2002, published 2007).

The structures appear in SMILES notation. Bounds are passed on as bounds.

Common to all, as to type: physicochemical
A short description of series [1]: Evaluation of the aroma losses during gas bubbling (Tenax entrapment and pentane extraction). To be noted: 50 ppm in NaCl 50 mM pH 7.5. As for the experimental part:
4. Evaluation of the Losses During the Bubbling
The aroma losses upon bubbling have been evaluated by entrapment on an absorbing polymer (Tenax) of the gas effluent at the flask outlet and by extraction of the liquid phase with pentane. The same is done for all the gasses being used.
The loss test is made on a 50 mL of a 2-nonanone solution (50 ppm) in NaCl (50 mM, pH 7.5).
The gas is simultaneously bubbled (8 min) at the same flowrate of 20 mL.min^−1 in the flask, then the gas effluent is entrapped on Tenax at the flask outlet. This Tenax trap is afterwards desorbed on a TCT Chrompak apparatus coupled with a HP chromatograph provided with a FID detector.
The amount of aroma entrapped on Tenax is determined in comparison with an external calibration curve. This calibration curve is obtained as described hereinafter: 1 μl of 2-nonanone solution is deposited in pentane in the glass cotton of the Tenax tube upper part, then the Tenax tube is desorbed in the same conditions as for the analysis. Different concentrations have been tested.
The amount of aroma remaining in the liquid phase is determined by extraction of the aroma solution (5 mL) by pentane (5 mL). One μl of the organic phase is injected in split/splitless in CPG. A comparison is made with an external calibration, obtained by injection of 1 μl of 2-nonanone solution in pentane.

A short description of series [2]: Static headspace measurement with redox modified by addition of molecules (DTT, potassium ferricyanide). How it is done: 1. Preparation of the Reducing Medium
The reducing medium is obtained by addition of DTT(1,4-dithiothreitol). The ultrapure water employed for the solution preparation is degassed with a high gas flowrate during 1 h. La 2-nonanone solution (50 ppm) is prepared through addition of such aroma into the degassed water; the solution volume has been chosen so that a minimum of air exists between the plug and the solution. The thus prepared solution is stirred for homogenisation for 30 min.
An aliquot of this solution is added with DTT (10 g.l^−1) and then this solution is stirred for 30 min.
In order to prevent the dilution phenomenon, another protocol has been used: the degassed water is added with DTT (10 g.l^−1), then the aroma is added.
The thus prepared solutions are distributed at a level of 10 mL in 40 mL brown flasks (Supelco, France) closed by Mininert valves (Supelco). The flasks are pressurized with nitrogen for 1 min with a flowrate of 260 mL.min^−1. The overpressure is then evacuated. The flasks are then equilibrated during 1 h 30 in a water bath at 30° C. For each one of the conditions, 4 repetitions are realized.
2. Preparation of the Oxidizing Medium
The oxidizing medium is obtained by addition of potassium ferricyanide.
Two aroma solutions are prepared: for solution 1, the 2-nonanone is solubilized in water and then the solution is stirred for 30 min; for solution 2, the potassium ferricyanide is dissolved in water, then the 2-nonanone is added. This solution is afterwards stirred during 30 min.
The thus prepared solutions are distributed at a level of 10 mL in 40 mL brown flasks (Supelco, France) closed by Mininert valves (Supelco).
The flasks are then equilibrated during 1 h 30 in a water bath at 30° C. For each one of the conditions, 4 repetitions are realized.

A short description of series [3]: Retention of aroma between aqueous phase (water) and organic liquid phase (dichloromethane) versus redox. The following applies: water/dichloromethane mixture; FIG. 9. The text has this: FIG. 9 illustrates the results of a measurement of the retention degree of 2-nonanone between an aqueous phase (water) and an organic liquid phase (dichloromethane) with non pressurized flasks (diamonds) or pressurized flasks with hydrogen (squares).
The experiment of Example 2 is realized, but in a mixture of water (aqueous phase)/dichloromethane (CH2Cl2, organic phase).

Series [4] is described as follows: Static headspace measurement of aroma release from a liquid phase to the vapour phase versus redox potential modified by gas bubbling. The following applies: for change of mass sharing coefficient Ki when the redox potential of the first liquid phase is lowered: liquid phase/gas phase; for effect of redox on aroma release/retention (headspace): FIG. 3, 4, 5. The text has this:
The study of the checking of the mass sharing coefficient Ki of an organic compound (i) between two phases, respectively a first liquid phase and a second vapour phase, as a function of the redox potential value includes the quantification of the organic compound (i) in the vapour phase at equilibrium, by the static headspace technique. In the examples, the method of the invention is illustrated with aroma-type organic compounds (i).
The static headspace technique consists in analyzing the vapours in equilibrium above a solution placed in a confined atmosphere at a given temperature. The vapour analysis in gas chromatography (CPG) gives the volatile compound concentration of the “head space”.
The aroma solutions are prepared in a solution of 50 mM NaCl, the pH of which has been adjusted to pH 3 with HCl (1N) or at pH 7.5 with NaOH (1N).
Furthermore, tests have also been realized in the presence of a lactoserum protein, the β-lactoglobuline, dispersed (3%) in a solution of 50 mM NaCl at pH 3 or pH 7.5, or in whole or skimmed milk.
The redox is modified by bubbling a gas (hydrogen, nitrogen, helium, or oxygen) at a flowrate of 20 mL.min^−1 for a previously determined time (8 min). The redox measurement is realized after the gas bubbling step with a redox measurement electrode connected to a pH meter-voltameter. The thus prepared solutions are distributed on the basis of 10 mL in brown flasks of 40 mL (Supelco, France) closed by Mininert valve plugs (Supelco). […]
A control is realized in the presence of air: the bubbling step is not realized, only the pressurization occurs, in the same conditions as the other gasses.
The flasks are then equilibrated in a water bath at 30° C. for 1 hr 30. At least 3 brown flasks are prepared for each gas, a flask serving only for one injection.
At the equilibrium, 1 mL of vapour phase is taken with a 1 mL gas syringe (SGE), then injected in a gas chromatograph (CPG) provided with a DB-WAX column (J&W Scientific, diameter 0.32 mm, length 30 m, phase thickness 0.5 μm) and a flame ionization detector. The injector and detector temperatures are respectively 250° C. and 260° C. The vector gas velocity (hydrogen) at 143° C. is of 37 cm.sec-^1. The signal acquisition is achieved with a chromatogram acquisition and treatment software developed in the laboratory.
Thus, the amount of aroma present in the vapour phase is determined for each gas.

As for `CCCCCCCC(C)=O` [2-nonanone], the “aroma losses during bubbling” value was 0.5% in series [1] (helium); 0.3% in series [1] (hydrogen); 2% in series [1] (nitrogen); 2.3% in series [1] (oxygen); under 3% in series [1] (regardless of the gas employed, bubbling 8 min at 20 mL/min). Besides, the “effect of reducing the redox potential by a reducing compound” value in series [2] (aqueous liquid phase, dithiothreitol (DTT) added) was “favours the 2-nonanone retention in the liquid phase”. Moreover, the “effect of increasing the redox potential by an oxidizing compound” value in series [2] (aqueous liquid phase, potassium ferricyanide added) is “favours the 2-nonanone release or transfer towards the second gas phase”. The “release in the vapour phase in a reducing medium versus oxidizing medium” value in series [2] (water, 50 ppm, DTT 10 g/l versus potassium ferricyanide, FIG. 10) is given as “less 2-nonanone released in the vapour phase than in the oxidizing medium”. Besides, the “retention in the aqueous phase at low redox” value in series [3] is listed as “better retained in the aqueous phase”. The “effect of a positive redox potential value on release” value in series [4] (aqueous liquid phase contacted with 100% oxygen or air (21% oxygen), same with 100% nitrogen) is on record as “favours the release or the transfer”. In series [4] (aqueous solution pH 7.5, helium, redox +400 mV), the “retention within the liquid phase with helium gas” value is on record as “no significant difference”. Further, the “modification of the medium aroma release at low redox (headspace)” value in series [4] (aqueous solution pH 7.5, hydrogen -320 mV versus nitrogen/oxygen about +500 mV, FIG. 1) is about −30%. Besides, in series [4] (aqueous solution pH 7.5, hydrogen, non pressurized flask, FIG. 8), the “effect when the atmosphere is neutral or oxidizing and the redox increases” value is on record as “effect inverses”. The “effect at low redox under reducing atmosphere” value in series [4] (aqueous solution pH 7.5, hydrogen, pressurized flask, FIG. 8) is on record as “retention effect”. The “difference of retention depending on the redox” value in series [4] (aqueous solution with beta-lactoglobuline at 3%, pH 7.5 and acid medium, FIG. 2) was “does not show any difference of retention depending on the redox”. Moreover, in series [4] (aqueous solution, acid medium, FIG. 1), the “modification of the aroma release at low redox (headspace)” value was −20%. For the same molecule, the “effect of a negative level of redox potential on retention” value in series [4] (liquid phase contacted with gas containing 100% hydrogen) is “favours the 2-nonanone retention in the liquid phase”. In addition, in series [4], the “change of mass sharing coefficient Ki when the redox potential of the first liquid phase is lowered” value (from here on “change … of the first liquid phase is lowered”) is “growth of the mass sharing coefficient Ki value”. Also, in series [4] (skimmed milk, pH 4.6), the “change of mass sharing coefficient Ki at low redox potential” value is reported as “reduction of the mass sharing coefficient value Ki”. The “effect at high redox” value in series [4] (skimmed milk, FIG. 7) was “no effect”. The “retention effect at low redox” value in series [4] (skimmed milk, FIG. 7) is on record as −20%. The “redox effect on the aroma release” value in series [4] (whole milk, FIG. 7) was “do not show any redox effect”.

As to `CCCCCC(=O)OCC` [ethyl hexanoate], the “effect of redox on aroma release/retention (headspace), in words” value in series [4] (conditions of Examples 2, 3, 4, FIG. 5) is on record as “no effect”. Besides, the “change … of the first liquid phase is lowered” value in series [4] was “lack of significant modification”.

Consider `C=CCN=C=S` [AITC, allyl isothiocyanate], for which the “effect of redox on aroma release/retention (headspace)” value in series [4] (conditions of Examples 2, 3, 4) was −30%. The “change … of the first liquid phase is lowered” value in series [4] is on record as “growth of the mass sharing coefficient Ki value”.

Regarding `CC(=O)C(C)=O` [diacetyl], the “effect of redox on aroma release/retention (headspace)” value in series [4] (conditions of Examples 2, 3, 4) is given as “+20%”. Moreover, in series [4], the “change … of the first liquid phase is lowered” value was “increase of the mass sharing coefficient Ki”.
